Reference: patent US6710066B2, “Photochemotherapeutic method using 5-aminolevulinic acid and other precursors of endogenous porphyrins” (priority 1989, dated 2004)

What was measured:
[1] = test system: P. yoelii; experiment: ALA-induced fluorescence within erythrocytes parasitized by P. yoelii, mice given ALA; conditions: ALA injected into infected mice
[2] = following intravenous injection; occasionally more than two months; cited from earlier work
[3] = very large doses; cited from earlier work

In the case of `NCC(=O)CCC(=O)O` [5-aminolevulinic acid (ALA)], the “PpIX accumulation in non-infected erythrocytes and leukocytes” value [1] was “no such accumulation of protoporphyrin” and the “PpIX accumulation in plasmodia within erythrocytes” value [1] was “accumulation of fluorescing and photosensitizing concentrations of protoporphyrin within metabolically active parasites”.
In the case of `CC1=C(CCC(=O)O)c2cc3[nH]c(cc4nc(cc5[nH]c(cc1n2)c(C)c5C(C)O)C(C)=C4C(C)O)c(C)c3CCC(=O)O` (stereo not shown) [HpIX, Hematoporphyrin IX, reference compound], the “persistence of photosensitizing amount of porphyrin in the skin” value [2] is listed as “at least two weeks” and the “effect on motor nerve conduction velocity” value [3] is listed as “transient decrease in motor nerve conduction velocity”.
